Tested on: cucumber powdery mildew fungus (Sphaerotheca fuliginea, a QoI-resistant strain, cytochrome b position 143 mutated from glycine to alanine)
Format: in vivo
Settings: 200 ppm, QoI-resistant strain (Test Example 2, Comparative Example 2)

`Cn1nnn(-c2ccccc2COc2cccc(-c3ccccc3)c2)c1=O` [1-[2-(biphenyl-3-yloxymethyl)-phenyl]-4-methyl-1,4-dihydrotetrazol-5-one] was tested, and the “area of lesion spots on the treated plant relative to that on an untreated plant” value was no less than 70%.

From patent publication US9867372B2, “Tetrazolinone compound and use of same” (SUMITOMO CHEMICAL COMPANY, LIMITED, priority 2013, dated 2018)
